For assay [1], the target named is T1, Protein mono-ADP-ribosyltransferase PARP15 (Homo sapiens, UniProt Q460N3).
T1 sequence (Q460N3 whole entry): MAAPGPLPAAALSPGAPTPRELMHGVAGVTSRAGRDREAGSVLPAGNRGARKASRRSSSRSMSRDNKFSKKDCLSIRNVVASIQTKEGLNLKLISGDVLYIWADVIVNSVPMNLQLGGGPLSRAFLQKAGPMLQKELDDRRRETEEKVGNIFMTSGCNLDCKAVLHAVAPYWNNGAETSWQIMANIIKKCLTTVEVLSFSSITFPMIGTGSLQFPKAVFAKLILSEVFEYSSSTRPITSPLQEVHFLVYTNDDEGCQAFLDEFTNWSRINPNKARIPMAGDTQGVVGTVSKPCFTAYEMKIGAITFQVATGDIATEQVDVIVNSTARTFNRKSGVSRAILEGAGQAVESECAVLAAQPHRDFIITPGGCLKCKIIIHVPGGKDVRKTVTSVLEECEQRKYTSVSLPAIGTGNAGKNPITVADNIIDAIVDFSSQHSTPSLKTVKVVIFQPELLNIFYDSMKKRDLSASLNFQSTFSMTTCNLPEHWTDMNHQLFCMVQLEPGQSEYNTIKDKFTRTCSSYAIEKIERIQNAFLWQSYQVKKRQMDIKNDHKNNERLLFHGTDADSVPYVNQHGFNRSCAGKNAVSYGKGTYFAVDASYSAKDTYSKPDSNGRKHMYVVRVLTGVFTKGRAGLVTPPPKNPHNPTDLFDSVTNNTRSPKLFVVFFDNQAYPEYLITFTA
The assay can be described thus: Inhibition of N-terminal His-tagged human ARTD7 (482 to 678 residues) expressed in Escherichia coli Rosetta2 (DE3) using SRPK2 as substrate after 3 hrs in presence of NAD+.

In assay [2] the target is Protein mono-ADP-ribosyltransferase PARP14 (Homo sapiens, UniProt Q460N5). Briefly: Inhibition of N-terminal His-tagged thioredoxin-fused human ARTD8 (1535 to 1801 residues) expressed in Escherichia coli Rosetta2 (DE3) after 21 hrs in presence of NAD+.
Protein mono-ADP-ribosyltransferase PARP14, sequence (Q460N5 whole entry, the tested form may be a part): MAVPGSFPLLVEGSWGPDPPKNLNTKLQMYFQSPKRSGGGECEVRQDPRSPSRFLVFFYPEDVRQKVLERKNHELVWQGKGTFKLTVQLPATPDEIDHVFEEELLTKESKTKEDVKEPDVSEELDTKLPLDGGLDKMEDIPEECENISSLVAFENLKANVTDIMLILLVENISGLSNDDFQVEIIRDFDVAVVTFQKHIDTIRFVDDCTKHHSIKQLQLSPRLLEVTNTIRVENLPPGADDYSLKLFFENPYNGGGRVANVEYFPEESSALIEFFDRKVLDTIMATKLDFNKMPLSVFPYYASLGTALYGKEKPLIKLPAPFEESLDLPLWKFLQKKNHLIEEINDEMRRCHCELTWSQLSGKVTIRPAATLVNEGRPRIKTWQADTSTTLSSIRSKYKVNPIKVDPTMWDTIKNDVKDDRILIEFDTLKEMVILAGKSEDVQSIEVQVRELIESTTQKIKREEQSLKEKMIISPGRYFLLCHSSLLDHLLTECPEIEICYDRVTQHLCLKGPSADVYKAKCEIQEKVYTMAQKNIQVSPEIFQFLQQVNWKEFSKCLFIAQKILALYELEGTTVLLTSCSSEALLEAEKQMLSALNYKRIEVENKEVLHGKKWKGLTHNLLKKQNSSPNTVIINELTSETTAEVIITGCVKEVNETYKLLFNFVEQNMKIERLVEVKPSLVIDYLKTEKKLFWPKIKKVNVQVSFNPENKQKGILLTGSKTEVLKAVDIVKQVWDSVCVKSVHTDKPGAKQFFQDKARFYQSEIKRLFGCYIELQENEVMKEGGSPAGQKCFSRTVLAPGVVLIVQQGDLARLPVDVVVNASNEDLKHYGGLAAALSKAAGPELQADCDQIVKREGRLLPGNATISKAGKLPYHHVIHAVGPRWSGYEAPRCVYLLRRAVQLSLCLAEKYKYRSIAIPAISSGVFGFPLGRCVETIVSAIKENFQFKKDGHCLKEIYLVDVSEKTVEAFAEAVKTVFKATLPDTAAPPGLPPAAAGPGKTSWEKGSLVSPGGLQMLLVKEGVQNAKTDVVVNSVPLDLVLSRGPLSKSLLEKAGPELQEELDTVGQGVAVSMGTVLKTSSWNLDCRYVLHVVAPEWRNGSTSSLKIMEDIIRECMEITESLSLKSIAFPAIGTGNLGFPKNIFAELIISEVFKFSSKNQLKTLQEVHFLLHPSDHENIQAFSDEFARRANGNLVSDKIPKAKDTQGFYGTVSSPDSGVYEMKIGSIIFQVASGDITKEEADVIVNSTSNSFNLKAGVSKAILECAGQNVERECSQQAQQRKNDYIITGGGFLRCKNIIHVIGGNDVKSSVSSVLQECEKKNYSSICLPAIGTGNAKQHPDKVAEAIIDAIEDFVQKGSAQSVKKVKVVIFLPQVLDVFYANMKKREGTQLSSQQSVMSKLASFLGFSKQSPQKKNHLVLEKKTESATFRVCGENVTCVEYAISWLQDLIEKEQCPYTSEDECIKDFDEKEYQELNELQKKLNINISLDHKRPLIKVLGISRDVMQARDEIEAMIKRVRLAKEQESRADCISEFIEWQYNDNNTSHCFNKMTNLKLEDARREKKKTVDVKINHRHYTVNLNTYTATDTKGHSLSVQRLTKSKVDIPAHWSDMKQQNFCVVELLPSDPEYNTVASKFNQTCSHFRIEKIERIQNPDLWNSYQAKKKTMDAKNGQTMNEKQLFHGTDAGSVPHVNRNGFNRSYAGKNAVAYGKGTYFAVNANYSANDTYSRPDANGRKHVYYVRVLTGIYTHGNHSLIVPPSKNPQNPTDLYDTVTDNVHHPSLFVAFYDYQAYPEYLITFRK
Assay [3] concerns the target T2, Protein mono-ADP-ribosyltransferase PARP10 (Homo sapiens, UniProt Q53GL7).
T2 sequence (Q53GL7 whole entry): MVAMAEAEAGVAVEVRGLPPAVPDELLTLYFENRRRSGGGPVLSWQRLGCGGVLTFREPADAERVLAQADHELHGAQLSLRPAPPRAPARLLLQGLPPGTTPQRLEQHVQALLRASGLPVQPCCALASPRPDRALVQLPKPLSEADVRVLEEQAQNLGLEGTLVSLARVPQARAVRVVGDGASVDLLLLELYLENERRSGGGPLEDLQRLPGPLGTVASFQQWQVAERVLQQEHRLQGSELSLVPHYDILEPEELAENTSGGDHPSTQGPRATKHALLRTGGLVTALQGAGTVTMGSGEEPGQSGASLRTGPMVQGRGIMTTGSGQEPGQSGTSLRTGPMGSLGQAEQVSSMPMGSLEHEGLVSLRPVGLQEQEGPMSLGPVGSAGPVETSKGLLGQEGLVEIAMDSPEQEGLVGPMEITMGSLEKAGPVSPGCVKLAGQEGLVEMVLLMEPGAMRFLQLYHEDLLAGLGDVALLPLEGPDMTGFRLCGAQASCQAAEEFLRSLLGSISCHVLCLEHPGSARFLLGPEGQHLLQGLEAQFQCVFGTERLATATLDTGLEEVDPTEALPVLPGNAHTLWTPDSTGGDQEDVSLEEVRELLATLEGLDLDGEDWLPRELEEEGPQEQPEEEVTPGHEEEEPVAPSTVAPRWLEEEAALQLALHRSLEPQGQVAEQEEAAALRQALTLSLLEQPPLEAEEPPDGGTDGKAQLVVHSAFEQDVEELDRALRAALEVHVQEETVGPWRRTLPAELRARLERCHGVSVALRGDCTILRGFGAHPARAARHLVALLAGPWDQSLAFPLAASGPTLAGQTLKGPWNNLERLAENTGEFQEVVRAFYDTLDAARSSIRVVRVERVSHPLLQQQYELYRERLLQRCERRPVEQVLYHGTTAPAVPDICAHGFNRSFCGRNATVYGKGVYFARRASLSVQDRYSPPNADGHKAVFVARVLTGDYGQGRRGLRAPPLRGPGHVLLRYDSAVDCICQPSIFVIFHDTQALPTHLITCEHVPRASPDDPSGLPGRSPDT
The assay can be described thus: Inhibition of C-terminal His-tagged human ARTD10 (809 to 1017 residues) expressed in Escherichia coli Rosetta2 (DE3) using SRPK2 as substrate after 13 hrs in presence of NAD+.

The target of assay [4] is Protein mono-ADP-ribosyltransferase PARP4 (Homo sapiens, UniProt Q9UKK3). Briefly: Inhibition of N-terminal His-tagged human ARTD4 (250 to 565 residues) expressed in Escherichia coli Rosetta2 (DE3) using TCEP as substrate after 2.5 hrs in presence of NAD+.
Protein mono-ADP-ribosyltransferase PARP4, sequence (Q9UKK3 whole entry, the tested form may be a part): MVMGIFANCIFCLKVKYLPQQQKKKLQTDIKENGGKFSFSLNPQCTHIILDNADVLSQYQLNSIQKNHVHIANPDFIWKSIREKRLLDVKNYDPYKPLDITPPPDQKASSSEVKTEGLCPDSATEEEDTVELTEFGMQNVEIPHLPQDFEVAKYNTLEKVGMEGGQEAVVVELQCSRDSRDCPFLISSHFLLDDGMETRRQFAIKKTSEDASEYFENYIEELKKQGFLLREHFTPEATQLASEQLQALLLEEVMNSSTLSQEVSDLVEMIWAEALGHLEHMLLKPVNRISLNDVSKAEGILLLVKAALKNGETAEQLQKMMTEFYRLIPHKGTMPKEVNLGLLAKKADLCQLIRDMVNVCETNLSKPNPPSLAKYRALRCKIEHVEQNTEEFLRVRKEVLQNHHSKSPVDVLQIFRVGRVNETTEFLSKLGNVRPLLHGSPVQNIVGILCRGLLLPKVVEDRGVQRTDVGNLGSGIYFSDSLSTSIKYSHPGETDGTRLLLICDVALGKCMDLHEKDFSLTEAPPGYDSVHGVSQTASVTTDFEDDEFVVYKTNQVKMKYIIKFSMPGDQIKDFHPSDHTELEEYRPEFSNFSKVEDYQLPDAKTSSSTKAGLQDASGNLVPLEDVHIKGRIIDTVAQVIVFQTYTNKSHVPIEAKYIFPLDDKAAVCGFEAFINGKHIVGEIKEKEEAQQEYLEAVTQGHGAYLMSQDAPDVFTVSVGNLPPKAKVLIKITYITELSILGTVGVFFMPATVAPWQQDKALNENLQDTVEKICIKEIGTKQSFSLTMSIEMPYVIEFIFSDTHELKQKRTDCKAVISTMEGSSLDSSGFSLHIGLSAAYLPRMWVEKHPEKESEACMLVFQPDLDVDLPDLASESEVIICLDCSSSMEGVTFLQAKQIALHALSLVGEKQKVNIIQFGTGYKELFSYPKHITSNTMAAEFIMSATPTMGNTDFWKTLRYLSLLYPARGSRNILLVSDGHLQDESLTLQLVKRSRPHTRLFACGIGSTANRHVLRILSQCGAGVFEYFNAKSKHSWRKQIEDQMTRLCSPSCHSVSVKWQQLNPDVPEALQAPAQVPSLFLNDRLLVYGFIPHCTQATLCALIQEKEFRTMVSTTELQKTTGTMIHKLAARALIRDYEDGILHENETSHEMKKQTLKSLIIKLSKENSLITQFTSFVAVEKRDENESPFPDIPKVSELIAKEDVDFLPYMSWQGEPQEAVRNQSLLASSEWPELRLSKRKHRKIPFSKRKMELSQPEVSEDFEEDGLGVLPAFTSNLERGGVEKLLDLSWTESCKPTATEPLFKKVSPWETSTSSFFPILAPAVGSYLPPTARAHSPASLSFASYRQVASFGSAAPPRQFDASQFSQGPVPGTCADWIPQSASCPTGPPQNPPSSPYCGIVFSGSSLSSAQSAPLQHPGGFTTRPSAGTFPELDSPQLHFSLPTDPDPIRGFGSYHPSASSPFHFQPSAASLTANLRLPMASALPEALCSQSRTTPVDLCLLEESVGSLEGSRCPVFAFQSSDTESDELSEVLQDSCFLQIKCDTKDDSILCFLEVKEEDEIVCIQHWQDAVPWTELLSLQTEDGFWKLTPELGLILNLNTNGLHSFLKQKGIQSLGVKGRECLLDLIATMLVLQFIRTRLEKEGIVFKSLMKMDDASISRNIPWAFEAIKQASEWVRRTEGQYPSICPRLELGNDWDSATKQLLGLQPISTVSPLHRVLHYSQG
The target in assay [5] is Poly [ADP-ribose] polymerase 2 (Homo sapiens, UniProt Q9UGN5). The assay can be described thus: Inhibition of N-terminal His-tagged thioredoxin-fused human ARTD2 (1 to 583 residues) expressed in Escherichia coli Rosetta2 (DE3) using activated DNA as substrate after 1.5 hrs in presence of NAD+.
Poly [ADP-ribose] polymerase 2, sequence (Q9UGN5 whole entry, the tested form may be a part): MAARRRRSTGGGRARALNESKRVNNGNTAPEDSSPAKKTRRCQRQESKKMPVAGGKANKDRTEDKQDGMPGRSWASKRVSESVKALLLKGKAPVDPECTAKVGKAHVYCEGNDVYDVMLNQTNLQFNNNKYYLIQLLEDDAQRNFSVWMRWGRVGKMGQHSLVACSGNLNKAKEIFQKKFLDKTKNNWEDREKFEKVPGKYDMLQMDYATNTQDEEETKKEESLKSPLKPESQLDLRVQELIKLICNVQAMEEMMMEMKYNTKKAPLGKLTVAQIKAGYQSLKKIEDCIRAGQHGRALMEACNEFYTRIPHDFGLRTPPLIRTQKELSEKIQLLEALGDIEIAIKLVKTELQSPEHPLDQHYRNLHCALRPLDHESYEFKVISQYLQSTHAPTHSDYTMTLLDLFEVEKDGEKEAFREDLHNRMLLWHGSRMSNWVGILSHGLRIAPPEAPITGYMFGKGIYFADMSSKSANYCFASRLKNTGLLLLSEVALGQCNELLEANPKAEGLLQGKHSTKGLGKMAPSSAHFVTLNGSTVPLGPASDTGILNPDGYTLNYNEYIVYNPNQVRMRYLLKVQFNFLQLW
Assay [6] addresses T3, Protein mono-ADP-ribosyltransferase PARP12 (Homo sapiens, UniProt Q9H0J9).
T3 sequence (Q9H0J9 whole entry): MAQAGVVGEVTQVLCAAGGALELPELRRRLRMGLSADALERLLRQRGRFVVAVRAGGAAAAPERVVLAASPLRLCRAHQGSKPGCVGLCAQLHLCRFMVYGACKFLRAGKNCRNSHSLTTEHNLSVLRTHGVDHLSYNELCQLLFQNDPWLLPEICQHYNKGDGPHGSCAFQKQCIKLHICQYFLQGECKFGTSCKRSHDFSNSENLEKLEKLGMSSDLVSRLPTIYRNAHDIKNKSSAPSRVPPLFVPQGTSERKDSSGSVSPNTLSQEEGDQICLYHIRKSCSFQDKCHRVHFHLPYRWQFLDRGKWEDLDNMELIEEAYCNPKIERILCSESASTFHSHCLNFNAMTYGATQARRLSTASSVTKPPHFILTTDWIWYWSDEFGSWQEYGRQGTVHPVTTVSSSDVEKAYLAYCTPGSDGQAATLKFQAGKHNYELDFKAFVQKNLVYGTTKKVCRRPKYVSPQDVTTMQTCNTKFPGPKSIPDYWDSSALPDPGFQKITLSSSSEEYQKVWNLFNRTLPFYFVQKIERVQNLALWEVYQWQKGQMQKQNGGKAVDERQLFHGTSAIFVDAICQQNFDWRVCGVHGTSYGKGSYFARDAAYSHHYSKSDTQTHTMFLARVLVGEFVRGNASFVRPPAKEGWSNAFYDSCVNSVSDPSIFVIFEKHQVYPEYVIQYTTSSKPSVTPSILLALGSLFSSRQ
The assay can be described thus: Inhibition of N-terminal His-tagged thioredoxin-fused human ARTD12 (469 to 701 residues) expressed in Escherichia coli Rosetta2 (DE3) after 20 hrs in presence of NAD+.

Experimental findings from ChEMBL document CHEMBL4270552, “4-(Phenoxy) and 4-(benzyloxy)benzamides as potent and selective inhibitors of mono-ADP-ribosyltransferase PARP10/ARTD10” (Eur J Med Chem, 2018) are described below.

Each structure is given as a SMILES string.

Turning to `COc1ccc(C(N)=O)cc1`, the IC50 in assay [1] was more than 10 µM; in assay [2], more than 10 µM; in assay [3] (read-out: IC50) it was 2.8 µM; in assay [3] (read-out: pIC50 (converted)), 2.75 µM; in assay [4] it was 65 µM; in assay [5], 77 µM. Further, in assay [6], the IC50 was more than 10 µM.

`NC(=O)c1ccc(OCc2ccccc2F)cc1`: the IC50 in assay [1] was 3.3 µM; in assay [2], 10 µM; in assay [3] (read-out: IC50), 0.23 µM; in assay [3] (read-out: pIC50 (converted)), 0.234 µM; in assay [4] it was more than 100 µM; in assay [5], more than 100 µM. Moreover, in assay [6], the IC50 was more than 10 µM.

In the case of `NC(=O)c1ccc(Oc2ccc(C(=O)O)cc2)cc1`, the IC50 is 2.6 µM in assay [1]; more than 10 µM in assay [2]; 0.18 µM in assay [3] (read-out: IC50); 0.186 µM in assay [3] (read-out: pIC50 (converted)); more than 100 µM in assay [4]; more than 100 µM in assay [5]. Besides, the IC50 in assay [6] was more than 10 µM.

Take `NC(=O)c1ccc(Oc2ccc(C=O)cc2)cc1`: the IC50 in assay [1] was more than 10 µM; in assay [2] it was more than 10 µM; in assay [3] (read-out: IC50), 0.71 µM; in assay [4], more than 100 µM; in assay [5], more than 100 µM; in assay [6], more than 10 µM.
